Results taken from patent US20080146669A1, “Novel Chloride Channel Pore Openers” (THE UAB RESEARCH FOUNDATION, priority 2005, published 2008).

Columns and labels:
wild-type CFTR = wild-type CFTR (Homo sapiens, UniProt P13569); assay: Macroscopic currents in excised inside-out patches from BHK-CFTR cells; type: biochemical; set-up: expressed in transfected cells; provided by J. Hanrahan (McGill University)
Description: Cell culture DNA constructs and transfections. Baby hamster kidney (BHK) cells stably expressing wild type human CFTR (BHK-CFTR) were provided by J. Hanrahan (McGill University). BHK-CFTR cells were cultured in Dulbecco's modified Eagle's medium (DMEM (Mediatech)) supplemented with 5% fetal bovine serum (FBS) and 1 mM penicillin-streptomycin. The growth media for the BHK-CFTR cells also contained 0.5 mM methotrexate to maintain selection for CFTR-expressing cells (22). HEK-293T cells were transiently transfected with wild-type or mutant CFTR cDNA using the Lipofectamine transfection kit following manufacturer's recommendations (Invitrogen, Corp). HEK-293T cells were cultured in DMEM. All cells were grown on plastic coverslips for patch clamp recording and were used 2-3 days post-seeding. Electrophysiology and data analysis. Macroscopic and multi-channel currents were recorded in the excised, inside-out configuration. Patch pipettes were pulled from Corning 8161 glass to tip resistances of […] (macroscopic recordings) or 8-10 mOhm (micropatch studies). […] CFTR currents were recorded in symmetrical solution containing (in mM): 140 N-methyl-D-glucaniine-Cl, 3 MgCl2, 1 EGTA and 10 TES. The pH was adjusted to 7.3. Macroscopic currents were evoked using a ramp protocol from +80 to −80 mV with a 10 sec time period. Patches were held at −80 mV or +80 mV for micropatch (multichannel) recordings. All patch clamp experiments were performed at 21-23° C. Signals from macroscopic and single channel recording were filtered at 20 and 200 Hz, respectively. Data acquisition and analysis were performed using pCLAMP8 and pCLAMP9 software (Axon Instruments). Curve fitting for kinetic analysis was performed using Microcal Origin software. Averaged data are presented as mean +/−SEM. Statistical comparisons were made by performing unpaired t-tests unless otherwise indicated. Ussing Chamber Experiments-CFBE41o epithelial cells stably transfected with ΔF508-CFTR or transiently transfected with wild-type CFTR were cultured as electrically resistive monolayers and assayed in Ussing chambers as described (16). ΔF508-CFTR-expressing monolayers were grown at 27° C. for 2-3 days to enhance the surface expression of this temperature-sensitive mutant. A serosal-to-mucosal Cl^− gradient (120 to 1.2 mM) was imposed, followed by amiloride addition (100 μM) to block Na^+ currents. Compounds were added to both chambers at the indicated concentrations. A 3-mV voltage pulse was imposed every 100 s to monitor transepithelial resistance.

R347D-CFTR = target: T1, R347D-CFTR (Homo sapiens, UniProt P13569, R347D); assay: Macroscopic currents in excised patches from HEK-293T cells transiently transfected with R347D-CFTR; type: biochemical
T1 construct: expressed in transfected cells; host or cells: HEK-293T, transient
T1 sequence (P13569 whole entry R347D): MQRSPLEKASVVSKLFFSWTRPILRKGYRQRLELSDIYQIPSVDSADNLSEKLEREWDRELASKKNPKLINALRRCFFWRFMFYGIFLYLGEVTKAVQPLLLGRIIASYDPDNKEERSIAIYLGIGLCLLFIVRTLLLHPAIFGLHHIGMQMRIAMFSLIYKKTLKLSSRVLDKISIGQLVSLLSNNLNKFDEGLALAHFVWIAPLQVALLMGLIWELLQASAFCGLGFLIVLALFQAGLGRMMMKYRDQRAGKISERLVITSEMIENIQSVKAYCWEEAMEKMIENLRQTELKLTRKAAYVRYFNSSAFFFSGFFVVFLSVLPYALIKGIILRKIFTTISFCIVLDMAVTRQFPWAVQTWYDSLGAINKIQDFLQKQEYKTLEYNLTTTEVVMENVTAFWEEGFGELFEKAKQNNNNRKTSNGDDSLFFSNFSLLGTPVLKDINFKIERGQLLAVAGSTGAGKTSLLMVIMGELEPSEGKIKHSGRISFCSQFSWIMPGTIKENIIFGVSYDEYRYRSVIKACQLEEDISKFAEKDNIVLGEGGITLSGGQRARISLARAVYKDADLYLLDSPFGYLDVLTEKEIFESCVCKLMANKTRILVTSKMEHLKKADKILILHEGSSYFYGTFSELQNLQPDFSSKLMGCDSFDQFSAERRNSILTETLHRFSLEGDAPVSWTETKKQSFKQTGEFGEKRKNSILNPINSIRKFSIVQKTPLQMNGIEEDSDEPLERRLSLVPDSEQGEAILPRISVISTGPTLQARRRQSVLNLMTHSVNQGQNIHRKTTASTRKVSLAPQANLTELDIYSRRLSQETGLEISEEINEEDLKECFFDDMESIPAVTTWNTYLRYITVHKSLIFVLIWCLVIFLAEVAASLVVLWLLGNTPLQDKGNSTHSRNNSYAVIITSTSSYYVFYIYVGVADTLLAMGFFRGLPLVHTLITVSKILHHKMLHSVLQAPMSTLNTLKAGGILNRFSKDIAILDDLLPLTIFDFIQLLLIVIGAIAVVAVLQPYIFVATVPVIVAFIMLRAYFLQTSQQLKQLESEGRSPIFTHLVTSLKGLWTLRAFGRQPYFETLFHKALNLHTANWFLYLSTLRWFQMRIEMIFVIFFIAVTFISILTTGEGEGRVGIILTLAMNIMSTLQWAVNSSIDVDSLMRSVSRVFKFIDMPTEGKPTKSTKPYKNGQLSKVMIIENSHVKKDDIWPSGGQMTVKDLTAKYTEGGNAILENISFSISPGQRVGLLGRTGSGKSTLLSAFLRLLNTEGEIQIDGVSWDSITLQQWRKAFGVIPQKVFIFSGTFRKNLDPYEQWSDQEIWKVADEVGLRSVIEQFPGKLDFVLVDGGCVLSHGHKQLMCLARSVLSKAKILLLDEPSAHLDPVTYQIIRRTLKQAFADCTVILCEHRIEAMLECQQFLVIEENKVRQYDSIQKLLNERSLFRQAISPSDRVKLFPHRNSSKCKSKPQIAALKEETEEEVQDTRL
Description: HEK-293T cells were transiently transfected with wild-type or mutant CFTR cDNA using the Lipofectamine transfection kit following manufacturer's recommendations (Invitrogen, Corp). HEK-293T cells were cultured in DMEM. All cells were grown on plastic coverslips for patch clamp recording and were used 2-3 days post-seeding. […] Macroscopic and multi-channel currents were recorded in the excised, inside-out configuration. Patch pipettes were pulled from Corning 8161 glass to tip resistances of 1.5-3.0 mOhm (macroscopic recordings) or 8-10 mOhm (micropatch studies). CFTR channels were activated following patch excision by exposure of the cytoplasmic face of the patch to catalytic subunit of protein kinase A (PKA; 110 U/ml; Promega) and Mg-ATP (1.5 mM). CFTR currents were recorded in symmetrical solution containing (in mM): 140 N-methyl-D-glucaniine-Cl, 3 MgCl2, 1 EGTA and 10 TES. The pH was adjusted to 7.3. Macroscopic currents were evoked using a ramp protocol from +80 to −80 mV with a 10 sec time period. Patches were held at −80 mV or +80 mV for micropatch (multichannel) recordings. All patch clamp experiments were performed at 21-23° C. Signals from macroscopic and single channel recording were filtered at 20 and 200 Hz, respectively. Data acquisition and analysis were performed using pCLAMP8 and pCLAMP9 software (Axon Instruments). […]

AR-S660A-CFTR = target: T2, AR-S660A-CFTR (Homo sapiens, UniProt P13569, DEL708-835/S660A); assay: Macroscopic currents in excised HEK-293T patches, R domain deletion mutant, no PKA; type: biochemical; conditions: 50 μM
T2 construct: expressed in transfected cells; host or cells: HEK-293T, transient
T2 sequence (P13569 with tags, fused parts or gaps S660A/DEL708-835): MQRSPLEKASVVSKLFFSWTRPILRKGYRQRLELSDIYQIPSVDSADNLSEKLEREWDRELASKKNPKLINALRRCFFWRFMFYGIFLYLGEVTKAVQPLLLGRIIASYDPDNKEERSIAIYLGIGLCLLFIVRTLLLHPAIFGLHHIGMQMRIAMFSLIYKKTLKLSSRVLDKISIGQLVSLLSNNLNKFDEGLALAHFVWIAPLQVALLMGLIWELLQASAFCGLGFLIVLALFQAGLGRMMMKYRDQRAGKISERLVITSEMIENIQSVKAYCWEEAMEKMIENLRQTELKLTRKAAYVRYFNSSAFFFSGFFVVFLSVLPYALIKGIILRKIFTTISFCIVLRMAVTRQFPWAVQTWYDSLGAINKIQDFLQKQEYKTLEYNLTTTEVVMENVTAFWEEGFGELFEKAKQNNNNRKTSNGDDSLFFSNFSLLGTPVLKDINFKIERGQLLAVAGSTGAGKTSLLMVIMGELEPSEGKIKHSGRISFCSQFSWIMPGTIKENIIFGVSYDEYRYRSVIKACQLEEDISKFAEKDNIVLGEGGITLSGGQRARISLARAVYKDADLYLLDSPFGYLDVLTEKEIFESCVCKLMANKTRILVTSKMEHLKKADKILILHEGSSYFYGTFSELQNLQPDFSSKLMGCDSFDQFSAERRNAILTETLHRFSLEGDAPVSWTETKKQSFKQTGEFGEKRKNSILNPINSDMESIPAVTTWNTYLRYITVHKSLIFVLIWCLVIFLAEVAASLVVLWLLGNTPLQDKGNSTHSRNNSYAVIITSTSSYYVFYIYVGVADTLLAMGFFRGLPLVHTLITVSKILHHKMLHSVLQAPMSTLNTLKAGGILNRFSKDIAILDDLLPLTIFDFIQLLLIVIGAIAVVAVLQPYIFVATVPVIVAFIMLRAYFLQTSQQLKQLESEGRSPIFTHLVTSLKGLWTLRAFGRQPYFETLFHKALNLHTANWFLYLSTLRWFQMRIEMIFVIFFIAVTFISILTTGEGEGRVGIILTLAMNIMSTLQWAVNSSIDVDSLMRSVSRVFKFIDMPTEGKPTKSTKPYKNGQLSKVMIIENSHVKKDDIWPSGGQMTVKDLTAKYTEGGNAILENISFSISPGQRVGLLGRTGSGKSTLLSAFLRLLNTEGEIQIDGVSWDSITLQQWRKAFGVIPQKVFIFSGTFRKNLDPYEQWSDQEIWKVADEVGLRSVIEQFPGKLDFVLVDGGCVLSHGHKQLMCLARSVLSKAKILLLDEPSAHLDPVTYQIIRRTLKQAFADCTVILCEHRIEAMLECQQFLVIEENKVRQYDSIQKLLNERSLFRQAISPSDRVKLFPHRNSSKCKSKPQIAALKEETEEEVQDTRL
Description: Cell culture DNA constructs and transfections. Baby hamster kidney (BHK) cells stably expressing wild type human CFTR (BHK-CFTR) were provided by J. Hanrahan (McGill University). BHK-CFTR cells were cultured in Dulbecco's modified Eagle's medium (DMEM (Mediatech)) supplemented with 5% fetal bovine serum (FBS) and 1 mM penicillin-streptomycin. The growth media for the BHK-CFTR cells also contained 0.5 mM methotrexate to maintain selection for CFTR-expressing cells (22). HEK-293T cells were transiently transfected with wild-type or mutant CFTR cDNA using the Lipofectamine transfection kit following manufacturer's recommendations (Invitrogen, Corp). HEK-293T cells were cultured in DMEM. All cells were grown on plastic coverslips for patch clamp recording and were used 2-3 days post-seeding. Electrophysiology and data analysis. Macroscopic and multi-channel currents were recorded in the excised, inside-out configuration. Patch pipettes were pulled from Corning 8161 glass to tip resistances of […] (macroscopic recordings) or 8-10 mOhm (micropatch studies). CFTR channels were activated following patch excision by exposure of the cytoplasmic face of the patch to catalytic subunit of protein kinase A (PKA; 110 U/ml; Promega) and Mg-ATP (1.5 mM). CFTR currents were recorded in symmetrical solution containing (in mM): 140 N-methyl-D-glucaniine-Cl, 3 MgCl2, 1 EGTA and 10 TES. […]

CFTR-minus cells = assay: Currents across patches excised from CFTR-minus (untransfected) cells; type: biochemical
Description: (§1) Cell culture DNA constructs and transfections. Baby hamster kidney (BHK) cells stably expressing wild type human CFTR (BHK-CFTR) were provided by J. Hanrahan (McGill University). BHK-CFTR cells were cultured in Dulbecco's modified Eagle's medium (DMEM (Mediatech)) supplemented with 5% fetal bovine serum (FBS) and 1 mM penicillin-streptomycin. The growth media for the BHK-CFTR cells also contained 0.5 mM methotrexate to maintain selection for CFTR-expressing cells (22). HEK-293T cells were transiently transfected with wild-type or mutant CFTR cDNA using the Lipofectamine transfection kit following manufacturer's recommendations (Invitrogen, Corp). HEK-293T cells were cultured in DMEM. All cells were grown on plastic coverslips for patch clamp recording and were used 2-3 days post-seeding. Electrophysiology and data analysis. Macroscopic and multi-channel currents were recorded in the excised, inside-out configuration. Patch pipettes were pulled from Corning 8161 glass to tip resistances of […] (macroscopic recordings) or 8-10 mOhm (micropatch studies). CFTR channels were activated following patch excision by exposure of the cytoplasmic face of the patch to catalytic subunit of protein kinase A (PKA; 110 U/ml; Promega) and Mg-ATP (1.5 mM). CFTR currents were recorded in symmetrical solution containing (in mM): 140 N-methyl-D-glucaniine-Cl, 3 MgCl2, 1 EGTA and 10 TES. The pH was adjusted to 7.3. Macroscopic currents were evoked using a ramp protocol from +80 to −80 mV with a 10 sec time period. Patches were held at −80 mV or +80 mV for micropatch (multichannel) recordings. All patch clamp experiments were performed at 21-23° C. Signals from macroscopic and single channel recording were filtered at 20 and 200 Hz, respectively. Data acquisition and analysis were performed using pCLAMP8 and pCLAMP9 software (Axon Instruments). Curve fitting for kinetic analysis was performed using Microcal Origin software. Averaged data are presented as mean +/−SEM. Statistical comparisons were made by performing unpaired t-tests unless otherwise indicated. Ussing Chamber Experiments-CFBE41o epithelial cells stably transfected with ΔF508-CFTR or transiently transfected with wild-type CFTR were cultured as electrically resistive monolayers and assayed in Ussing chambers as described (16). ΔF508-CFTR-expressing monolayers were grown at 27° C. for 2-3 days to enhance the surface expression of this temperature-sensitive mutant. A serosal-to-mucosal Cl^− gradient (120 to 1.2 mM) was imposed, followed by amiloride addition (100 μM) to block Na^+ currents. Compounds were added to both chambers at the indicated concentrations. A 3-mV voltage pulse was imposed every 100 s to monitor transepithelial resistance.

G551D-CFTR = target: T3, G551D-CFTR (Homo sapiens, UniProt P13569, G551D); assay: Macroscopic currents in excised patches from HEK-293T cells expressing G551D-CFTR; type: biochemical
T3 construct: expressed in transfected cells; host or cells: HEK-293T, transient
T3 sequence (P13569 whole entry G551D): as the sequence (P13569 whole entry R347D) above, with D347R, G551D counted along it
Description: as §1, with “Ussing Chamber Experiments-CFBE41o epithelial cells stably transfected with ΔF508-CFTR or transiently transfected with wild-type CFTR were cultured as electrically resistive monolayers and assayed in Ussing chambers as described (16). ΔF508-CFTR-expressing monolayers were grown at 27° C. for 2-3 days to enhance the surface expression of this temperature-sensitive mutant. A serosal-to-mucosal Cl^− gradient (120 to 1.2 mM) was imposed, followed by amiloride addition (100 μM) to block Na^+ currents. Compounds were added to both chambers at the indicated concentrations. A 3-mV voltage pulse was imposed every 100 s to monitor transepithelial resistance.” left out

ΔF508-CFTR [1] = target: T4, ΔF508-CFTR (Homo sapiens, UniProt P13569, DEL508-508); assay: Macroscopic currents in excised patches from temperature-corrected HEK-293T cells expressing ΔF508-CFTR; type: biochemical; conditions: high PKA 110 U/ml without PKI
T4 construct: expressed in transfected cells; host or cells: HEK-293T, transient; grown at 28° C. for 24 hrs
T4 sequence (P13569 with tags, fused parts or gaps DEL508-508): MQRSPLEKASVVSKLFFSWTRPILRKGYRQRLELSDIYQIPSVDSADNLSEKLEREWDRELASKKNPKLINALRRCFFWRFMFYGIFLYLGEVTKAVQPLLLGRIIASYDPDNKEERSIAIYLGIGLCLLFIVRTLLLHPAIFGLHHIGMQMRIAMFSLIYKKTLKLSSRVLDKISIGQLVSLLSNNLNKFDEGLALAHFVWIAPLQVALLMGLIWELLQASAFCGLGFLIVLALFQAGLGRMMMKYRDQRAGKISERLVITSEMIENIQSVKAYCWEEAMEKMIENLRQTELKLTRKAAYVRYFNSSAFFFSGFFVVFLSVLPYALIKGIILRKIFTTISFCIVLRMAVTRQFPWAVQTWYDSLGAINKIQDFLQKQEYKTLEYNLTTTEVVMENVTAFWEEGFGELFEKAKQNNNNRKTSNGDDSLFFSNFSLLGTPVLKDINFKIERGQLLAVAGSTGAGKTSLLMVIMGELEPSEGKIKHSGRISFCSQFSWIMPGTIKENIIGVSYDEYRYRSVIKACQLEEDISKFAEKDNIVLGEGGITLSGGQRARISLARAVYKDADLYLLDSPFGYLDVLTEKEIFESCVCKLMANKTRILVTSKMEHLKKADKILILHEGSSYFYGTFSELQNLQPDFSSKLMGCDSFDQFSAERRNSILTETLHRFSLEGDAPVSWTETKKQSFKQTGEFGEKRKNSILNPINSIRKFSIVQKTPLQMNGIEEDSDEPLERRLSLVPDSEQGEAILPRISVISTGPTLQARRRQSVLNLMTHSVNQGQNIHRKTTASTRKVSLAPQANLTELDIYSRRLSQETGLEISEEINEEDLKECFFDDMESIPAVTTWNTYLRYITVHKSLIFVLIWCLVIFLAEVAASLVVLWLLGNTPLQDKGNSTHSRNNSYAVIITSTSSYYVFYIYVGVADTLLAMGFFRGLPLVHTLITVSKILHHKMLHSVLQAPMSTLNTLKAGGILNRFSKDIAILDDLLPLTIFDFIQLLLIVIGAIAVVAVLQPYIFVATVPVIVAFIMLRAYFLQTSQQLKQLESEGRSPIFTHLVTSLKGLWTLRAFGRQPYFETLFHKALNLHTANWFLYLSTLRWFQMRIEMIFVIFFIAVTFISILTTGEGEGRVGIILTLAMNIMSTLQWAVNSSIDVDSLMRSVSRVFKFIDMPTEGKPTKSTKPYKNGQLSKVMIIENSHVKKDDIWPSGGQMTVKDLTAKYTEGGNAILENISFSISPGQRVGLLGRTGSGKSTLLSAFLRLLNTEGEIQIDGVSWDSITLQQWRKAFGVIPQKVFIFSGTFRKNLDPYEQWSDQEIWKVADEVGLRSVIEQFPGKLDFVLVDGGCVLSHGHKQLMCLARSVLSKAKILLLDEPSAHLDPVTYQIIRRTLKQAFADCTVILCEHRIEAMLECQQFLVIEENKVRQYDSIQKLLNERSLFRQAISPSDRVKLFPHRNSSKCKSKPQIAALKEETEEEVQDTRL
Description: as §1

AF508-CFTR = conditions: tissue culture cells and mice; reported by Egan et al. (12); cited from earlier work
ΔF508-CFTR [2] = target: T4, ΔF508-CFTR; assay: Ussing chamber transepithelial chloride currents, temperature-corrected ΔF508-CFTR CFBE41o- monolayers; type: cell-based; conditions: 1 μM compound with 1 μM forskolin; N=8-12
Description: as §1

Chain of wild-type CFTR (P13569 whole entry): as the sequence (P13569 whole entry R347D) above, with D347R counted along it

NC(CCc1ccccc1)C(=O)O (stereo not drawn) [APB, reference compound]
stimulation of thiolated CFTR channels (wild-type CFTR; 400 μM, same conditions as FIG. 1A): fails to stimulate

O=C(O)c1ccccc1Nc1ccccc1 [DPC, reference compound]
increased CFTR currents, thiolated channels (wild-type CFTR; 0.5 mM): neither

O=C(O)c1cc([N+](=O)[O-])ccc1NCCCc1ccccc1 [NPPB, 5-nitro-2-(3-phenylpropyl-amino)-benzoic acid, reference compound]
stimulation of R347D-CFTR currents at depolarizing potentials compared with wild type (R347D-CFTR; all levels of phosphorylation): to a greater extent than for wild type CFTR
effect on currents of moderately phosphorylated R347D-CFTR channels (R347D-CFTR; low doses, high PKA followed by PKI): stimulates currents in both directions
effect on currents in the absence of PKA (AR-S660A-CFTR): markedly stimulate
current induced at depolarizing potential in patches excised from CFTR-minus cells (CFTR-minus cells): absent
effect on currents across a patch from untransfected HEK-293T cells (CFTR-minus cells; untransfected HEK-293T): neither
effect on G551D-CFTR activity (G551D-CFTR; 200-400 μM): markedly stimulated
concentration dependence of G551D-CFTR activation compared to the wild type channel (G551D-CFTR; NPPB titration, wild type activated with low PKA): appreciable shift toward higher concentrations
effect on ΔF508-CFTR macroscopic currents (ΔF508-CFTR [1]; 100 μM): dramatically stimulated
effect on macroscopic current of thiolated (glutathionylated) CFTR channels (wild-type CFTR; 200 μM, high PKA 110 U/ml, 1.5 mM MgATP, PKI, diamide/GSH 20 μM): a large increase in current at depolarizing voltages
effect on currents of moderately phosphorylated wild-type channels (wild-type CFTR; 5-300 μM, high PKA followed by PKI, seven experiments): voltage-dependent block at all doses
effect on currents of poorly phosphorylated, not thiolated CFTR channels (wild-type CFTR; 30-230 μM, low PKA 2 U/ml followed by PKI): stimulated CFTR currents at depolarizing potentials
effect on currents of highly phosphorylated CFTR channels (wild-type CFTR; continuous high PKA 110 U/ml without PKI): Only voltage-dependent block
effect on currents of poorly phosphorylated CFTR channels at higher concentrations (wild-type CFTR; higher concentrations of NPPB, low PKA then PKI): block was observed at all recording potentials

NS(=O)(=O)c1cc([N+](=O)[O-])ccc1NCCCc1ccccc1 [NPPB-sulf]
effect on CFTR channel activity (wild-type CFTR; 100 μM, data not shown): weak effect

N#CS [SCN^−, reference compound]
increased CFTR currents, thiolated channels (wild-type CFTR; 10 mM): neither

COc1cc(/C=C/C(=O)CC(=O)/C=C/c2ccc(O)c(OC)c2)ccc1O [curcumin]
effect on ΔF508-CFTR macroscopic currents (ΔF508-CFTR [1]; 10 μM): dramatically stimulated
biosynthetic maturation and functional correction of the ΔF508-CFTR mutant (AF508-CFTR): promotes the biosynthetic maturation and functional correction
time course and reversibility of the stimulation of CFTR current (wild-type CFTR): transient
voltage dependence of the stimulation of CFTR current (wild-type CFTR): voltage-independent
effect on moderately phosphorylated CFTR channels (wild-type CFTR; 0.5-40.5 μM, six experiments): stimulates moderately phosphorylated CFTR channels

O=c1c(-c2ccc(O)cc2)coc2cc(O)cc(O)c12 [genistein, reference compound]
potentiation of the forskolin effect on ΔF508-CFTR transepithelial currents (ΔF508-CFTR [2]): failed to potentiate the forskolin response

COc1ccc(Cl)cc1C(=O)NCCc1ccc(S(=O)(=O)NC(=O)NC2CCCCC2)cc1 [glibenclamide]
current induced at depolarizing potential in patches excised from CFTR-minus cells (CFTR-minus cells): absent
